Literature values, collected in US8476254B2, “Methods for treating psychosis associated with interferson-α therapy” (Corcept Therapeutics, Inc., priority 2002, dated 2013).

Conditions: % of the daily dose; in one study (Kawai)

fraction of the daily dose excreted in the urine: less than 0.5%
SMILES: CC#C[C@]1(O)CC[C@H]2[C@@H]3CCC4=CC(=O)CCC4=C3[C@@H](c3ccc(N(C)C)cc3)C[C@@]21C [Mifepristone, 17-beta-hydroxy-11-beta-(4-dimethyl-aminophenyl)-17-alpha-(1-propynyl)-estra-4,9-dien-3-one]
